“Also recorded” adds a separate entry of the source. Read-outs that look alike come from different tables or passages of the source.
How the values were obtained:
HSV-2 = assay: Fusion of octadecyl rhodamine B chloride-labeled HSV-2 with NC-37 human B cells; assay type: cell-based
Experimental: NC-37 human B cells were inoculated in the presence of 15 mM n-docosanol, the corresponding concentration of Tetronic 908 (0.1 mM) or without addition. Cells were harvested and R-18-labeled HSV-2 was added to aliquots in the presence of compounds at their original concentration. Following incubation at 37° C. for the times indicated, cells were fixed and fluorescence intensity determined by FACScan.
The HSV envelope was labeled with octadecyl rhodamine B chloride (R-18). NC-37 human B cells were inoculated at 2.5×10^5 cells/ml, 25 ml per flask. Cells were incubated overnight at 37° C. with no addition or in the presence of 15 mM n-docosanol or the corresponding concentration of Tetronic 908. […] Fluorescence intensity was measured by using a fluorescence-activated cell sorter (FACScan; Becton-Dickinson).
Because of the selectivity of the inhibitory effects of n-docosanol for lipid-enveloped fusion-dependent viruses and the absence of viricidal effects, we considered the possibility that n-docosanol may inhibit viral entry by altering target cell membranes to prevent effective fusion of viral particles with target cells. To investigate the effects of n-docosanol on HSV fusion with cellular membranes we conducted fluorescence dequenching assays. […] This relieves fluorescence self-quenching and causes an increase in signal intensity.

Water solubility = assay type: physicochemical
HSV = assay: Inhibition of HSV replication, Tetronic versus Pluronic suspension; assay type: cell-based
Description: An initial step in conducting such studies involved switching to a different surfactant or suspending n-docosanol. Tetronic 908 is closely related to Pluronic F68; both are block copolymers of ethylene oxide and propylene oxide. However, whereas Pluronic is a bifunctionaI polymer with a molecular weight of 8,400, Tetronic 908 is a tetrfunctional copolymer, produced by adding propylene oxide and ethylene oxide to ethylenediamine and resulting in a molecule with an average molecular weight of 25,000. […] This appears to relate to the 3-fold higher levels of metabolic conversion in cells treated with n-docosanol in Tetronic.

lipid-enveloped viruses = assay: Spectrum of antiviral activity against lipid-enveloped viruses in vitro; assay type: cell-based
HSV-I = assay: Binding of [3H]HSV-I to Vero cells; assay type: cell-based; details: virus at 2 p.f.u./cell; n-docosanol 15 mM
Description: Attachment of HSV-I to specific cell surface receptors is unaffected in n-docosanol-treated cells. Previous studies have verified that attachment of HSV-1 to specific cell surface receptors is unaffected in n-docosanol-treated cells. […] Heparin inhibited this interaction 96%.

HSV-1 or HSV-2 = assay: Inhibition of HSV production and plaque formation in Vero cells; assay type: cell-based
Experimental: Cultured cells were placed in 35-mm wells (2 ml; 3×10^5 cells/ml) in DMEM containing L-glucamine, pennstrep (cDMEM) and supplemented with 5% FCS. n-Docosanol or the corresponding control vehicle (lacking n-docosanol) was added at the outset of the culture. All cultures were then inoculated with 175 p.f.u. of HSV-1 or HSV-2.
The cultures were incubated for an additional 42-44 h, washed once with fresh medium, stained and fixed (the staining/fixative consists of 1.25 mg/ml of carbol-fuchsin plus 2.5 mg/ml of methylene blue in methanol) and then scored for HSV-induced plaques using a dissecting microscope (10× magnification). Thc data are averages of duplicate cultures, which varied by no more than 5-10%.

HSV-2 (333) = assay: Entry of HSV-2 (333) into CHO-IEβ8 cells (beta-galactosidase, OD600); assay type: cell-based; details: for inhibition at 30000 µM: Human alphaherpesvirus 2, 30 mM
Experimental: CHO-IEβ8 cells were seeded into 24-well plates. After cell attachment, heparin, n-docosanol-vehicle, vehicle alone, or no agent (control) was added. Five to six hours after infection, the cells were processed, X-gal was added, and the absorbance at 600 nm was determined.
Twenty-four hours before infection, cultured cells were seeded into 24-well (16-mm) plates at 2.5×10^6 cells/well in 0.5 ml cDMEM supplemented with 10% fetal bovine serum (FES). After cell attachment (4-6 h later) heparin, n-docosanol-surfactant, or surfactant alone was added to the cells in 0.5 ml DMEM/10% FES. The agents were dissolved in the medium at two times the desired final concentration. For infection, 0.7 ml of medium was removed from each well and 25 μl of virus suspension was added to the remaining 0.3 ml to give a virus dose of at least 20 p.f.u./cell The plates were rocked at 37° C. for 3 h and then put in a 37° C. CO2 incubator for another 2-3 h.
At 5-6 h after infection, the cells were fixed with PES containing 2% formaldehyde and 0.2% glutaraldehyde, washed, then permeabilized with 0.02% NP-40, 0.01% deoxycholate and 2 mM MgCl2. After washing again, 5-bromo-4-chloro-3indolyl-β-galactopyranoside (X-gal) was added for development of blue product. The substrate was removed and replaced with 50% glycerol. Plates were photographed. To quantify the amount of color in each well the glycerol was removed from all wells that were then washed 3× with distilled H2O. DMSO (0.6 ml) was added to solubilize the dye and, after transferring 100 μl of each sample well from the 24-well plate to a 96-well plate, the OD600 was recorded using a 96-well plate reader.
n-Docosanol inhibits HSV-2(333) infectivity of CHO-IEβ8 cells. To further narrow the point of inhibition of viral entry in n-docosanol-treated cells, the effects of the drug on entry of HSV-2 into CHO-IEβ8 cells selected by transfection of CHO cells with a plasmid carrying a Pur selectable marker and lacZ under control of the HSV-1 ICP4 promoter was investigated. In this cell line, β-gal expression is induced upon entry of HSV virion proteins into the cell, an event which occurs immediately upon viral entry into the cellular cytoplasm and which is not dependent on virion transport to the nucleus.

Compound: CCCCCCCCCCCCCCCCCCCCCCO [n-docosanol]
- inhibition at 15000 µM (HSV-2; Human alphaherpesvirus 2, NC-37, read-out: inhibition of fluorescent response compared to Tetronic control): ≤ 76%
- inhibition at 15000 µM (HSV-2; Human alphaherpesvirus 2, NC-37, read-out: inhibition of relative increase in fluorescence intensity compared to cells receiving no treatment): ~50%
- water solubility (Water solubility): water-insoluble
- ED50 for inhibition of HSV replication relative to Tetronic (HSV; suspended in Pluronic): approximately 3 times higher
- ED50 for inhibition of HSV replication (HSV; suspended in Tetronic): 5 to 10 mM
- HUMAN VIRUSES shown to be susceptible (lipid-enveloped viruses): Respiratory Syncytial Virus; also recorded: Cytomegalovirus; also recorded: Influenza A; also recorded: HIV-1; also recorded: Herpes Simplex-1 & 2; also recorded: Varicella Zoster Virus; also recorded: Human Herpesvirus-6
- MURINE VIRUSES shown to be susceptible (lipid-enveloped viruses): Cytomegalovirus; also recorded: Friend Leukemic Virus; also recorded: LP-BM5 Virus
- inhibition of [3H]HSV-I binding (HSV-I): bound normal levels
- ID50 for inhibition of HSV production (HSV-1 or HSV-2): 4 mM
- ID50 for inhibition of plaque formation (HSV-1 or HSV-2): 9 mM
- maximal observed inhibition in comparison to untreated cells (HSV-2 (333)): approximately 75%
- reduction in the expression of β-galactosidase (HSV-2 (333)): ≤ 80%
- inhibition at 30000 µM (HSV-2 (333); read-out: inhibition of color production compared to Tetronic 908-treated cells): 55%
- inhibition at 30000 µM (HSV-2 (333); read-out: inhibition of color production compared to untreated cells): 40%
